Several values for one entry are separate records, joined by “and”; a condition that tells them apart may be missing. Equal entries are not always repeated.
System: 217524-143-R1-J4-PDC spheroids with HUVEC/MSC, viability
Assay: Anticancer human tumor 217524-143-R1-J4-PDC patient-derived pancreatic carcinoma cell line growth inhibition [CLK]
Settings: for viability, T/C: stronger effect = lower value
Excerpt: A high-throughput screen of multi-cell type tumor spheroids was designed to identify active combinations of […] and targeted small molecules. Complex spheroids include a stromal component modeled by human endothelial cells (HUVEC) and fibroblasts modeled by human mesenchymal stem cells (MSCs). The concentration ranges selected for each drug and investigational agent were based upon clinically achievable concentrations if the clinical Cmax of the agent was known.
Compounds. The drugs and investigational agents: cirtuvivint (SM08502; NSC835563), CC-671 (NSC850746), vemurafenib (NSC761431), tapotoclax (NSC804041), sotorasib (NSC818433), adagrasib (NSC831453), MRTX-1133 (NSC836407), BAY2416964 (NSC825713), copanlisib (NSC816437), inavolisib (NSC800729), abemaciclib (NSC768073), osimertinib (NSC779217), entinostat (NSC756642), eltanexor (KPT-8602, NSC794443), venetoclax (NSC766270), ceralasertib (NSC777638), bortezomib (NSC756655), olaparib (NSC753686), talazoparib (NSC767125), alisertib (NSC759677), peposertib (NSC802822), gemcitabine (NSC613327), 5-fluorouracil (NSC19893), SN-38 (NSC673596), oxaliplatin (NSC266046), paclitaxel (NSC125973), and doxorubicin (NSC123127), were obtained from the National Cancer Institute (NCI) Developmental Therapeutics Program Chemical Repository. The FDA-approved anticancer drug set is available from the Developmental Therapeutics Program at https://dtp.cancer.gov/organization/dscb/obtaining/available plates.htm. […] The stock solutions were prepared in dimethyl sulfoxide (DMSO, Sigma-Aldrich, St. Louis, MO, cat. D2650), except for the platinum complexes which were prepared in saline (Quality Biological, Gaithersburg, MD, cat. 114-055-101), at 800-fold the tested concentration and stored at -70 degrees C prior to their use. All drugs and investigational agents were tested over a range starting from a high concentration at or near the clinical Cmax and decreasing in half-log increments. If the clinical Cmax for an agent had not been determined, the highest concentration tested was 10 microM.
Cell Culture. All cells were maintained in an incubator at 37 degrees C and 5% CO2 with 95% humidity. The PDC lines were cultured according to standard operating procedures established by the NCI PDMR. Briefly, all PDCs were thawed and cultured in Matrigel-coated flasks prepared with a working solution of 1X Ham's F-12 nutrient mix, without supplementation (Invitrogen, Waltham, MA, cat. 11765054), 100 U/mL penicillin-streptomycin (Invitrogen, cat. 15140122), and 2.5% Matrigel (Corning Inc., Corning, NY, cat. 354248) for the first three passages. The 947758-054-R-J2-PDC line was cultured in 6B/Colon 1A media, which includes advanced DMEM/F-12 (Thermo Fisher Scientific, cat. 12634028), 10 mM HEPES (Thermo Fisher Scientific, cat. 15630080), 1X GlutaMAX supplement (Thermo Fisher Scientific, cat. 35050061), 0.1 mg/mL primocin (InvivoGen, cat. ant-pm-2), 10% defined fetal bovine serum, heat inactivated (HyClone Laboratories Inc., cat. SH30070.03HI), 1.25 mM N-Acetyl-L-cysteine (Sigma-Aldrich, cat. A9165), 10 mM nicotinamide (Sigma-Aldrich, cat. N0636), 1X B-27 supplement (Thermo Fisher Scientific, cat. 17504044), 1X N-2 supplement (Thermo Fisher Scientific, cat. 17502048), and 10 microM Y-27632 dihydrochloride (Tocris Bioscience, cat. 1254). The 876862-298-R-J1-PDC was cultured in 6E media, which includes all 6B/Colon 1A media components plus 50% L-WRN conditioned media (ATCC, cat. CRL-3276), 50 ng/mL recombinant human EGF recombinant protein (hEGF; Thermo Fisher Scientific, cat. PHG0311), 10 ng/mL recombinant human fibroblast growth factor 10 (hGFG-10; PeproTech, cat. 100-26), 1 ng/mL recombinant human fibroblast growth factor 2 (hFGF-2; PeproTech, cat. 100-18B), and 1 µM prostaglandin E2 (PGE2; Tocris, cat. 2296). The 227483-062-R1-J1-PDC line was cultured in Panc media, containing all 6E components except hFGF-2, with the addition of 500 nM SB-431542 (Selleckchem, cat. S1067) and 10 nM gastrin (Tocris, cat. 3006). […]

[1] = curve of first compound, second compound 0.0316 µM
[2] = curve of first compound, second compound 0.1 µM
[3] = curve of first compound, second compound 0.316 µM
[4] = curve of first compound, second compound 1 µM
[5] = curve of first compound, second compound 3.16 µM
[6] = curve of first compound, second compound 10 µM
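Further: spheroids exposed to agents for seven days before reading.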
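Wherever viability, T/C is given: 100% = DMSO vehicle control viability.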

For `CCc1c2c(nc3ccc(O)cc13)-c1cc3c(c(=O)n1C2)COC(=O)[C@]3(O)CC` + CN1CCN(c2cc(C(=O)Nc3cc4cc(-c5cnn(C)c5)ccc4cn3)ccn2)CC1, the IC50 [1] was under 3.16 nM, the IC50 [2] was under 3.16 nM and the IC50 [3] was under 3.16 nM. For the same compound, the IC50 [4] was under 3.16 nM, the IC50 [5] was under 3.16 nM and the IC50 [6] was under 3.16 nM. It also gave a viability, T/C (second compound 0.0316 µM, first compound 0.00316 µM) of 46.2%, a viability, T/C (second compound 0.0316 µM, first compound 0.01 µM) of 34.1% and a viability, T/C (second compound 0.0316 µM, first compound 0.0316 µM) of 28.7%. For the same compound, the viability, T/C (second compound 0.0316 µM, first compound 0.1 µM) was 25.2%, the viability, T/C (second compound 0.0316 µM, first compound 0.316 µM) was 17.5% and the viability, T/C (second compound 0.0316 µM, first compound 1 µM) was 6.45%. The viability, T/C (second compound 0.1 µM, first compound 0.00316 µM) was 35.9%, the viability, T/C (second compound 0.1 µM, first compound 0.01 µM) was 30.1% and the viability, T/C (second compound 0.1 µM, first compound 0.0316 µM) was 21.9%. It also gave a viability, T/C (second compound 0.1 µM, first compound 0.1 µM) of 17.5%, a viability, T/C (second compound 0.1 µM, first compound 0.316 µM) of 14.5% and a viability, T/C (second compound 0.1 µM, first compound 1 µM) of 5.83%. It also gave a viability, T/C (second compound 0.316 µM, first compound 0.00316 µM) of 14.8%, a viability, T/C (second compound 0.316 µM, first compound 0.01 µM) of 12.7% and a viability, T/C (second compound 0.316 µM, first compound 0.0316 µM) of 10.8%. For the same compound, the viability, T/C (second compound 0.316 µM, first compound 0.1 µM) was 4%, the viability, T/C (second compound 0.316 µM, first compound 0.316 µM) was 2.32% and the viability, T/C (second compound 0.316 µM, first compound 1 µM) was 1.82%. The viability, T/C (second compound 1 µM, first compound 0.00316 µM) was 1.37%, the viability, T/C (second compound 1 µM, first compound 0.01 µM) was 1.13% and the viability, T/C (second compound 1 µM, first compound 0.0316 µM) was 0.98%. The viability, T/C (second compound 1 µM, first compound 0.1 µM) was 1.39%, the viability, T/C (second compound 1 µM, first compound 0.316 µM) was 1.84% and the viability, T/C (second compound 1 µM, first compound 1 µM) was 2.32%. For the same compound, the viability, T/C (second compound 3.16 µM, first compound 0.00316 µM) was 1.13%, the viability, T/C (second compound 3.16 µM, first compound 0.01 µM) was 0.69% and the viability, T/C (second compound 3.16 µM, first compound 0.0316 µM) was 1.06%. For the same compound, the viability, T/C (second compound 3.16 µM, first compound 0.1 µM) was 1.74%, the viability, T/C (second compound 3.16 µM, first compound 0.316 µM) was 1.87% and the viability, T/C (second compound 3.16 µM, first compound 1 µM) was 2.05%. For the same compound, the viability, T/C (second compound 10 µM, first compound 0.00316 µM) was 0.09%, the viability, T/C (second compound 10 µM, first compound 0.01 µM) was 0.16% and the viability, T/C (second compound 10 µM, first compound 0.0316 µM) was 0.24%. The viability, T/C (second compound 10 µM, first compound 0.1 µM) was 0.19%, the viability, T/C (second compound 10 µM, first compound 0.316 µM) was 0.31% and the viability, T/C (second compound 10 µM, first compound 1 µM) was 0.19%.

For `C=CC(=O)N1CCN(c2nc(=O)n(-c3c(C)ccnc3C(C)C)c3nc(-c4c(O)cccc4F)c(F)cc23)C(C)C1` (stereo unspecified), the viability, T/C (compound 0.0316 µM) was 98.7% and 109%, the viability, T/C (compound 0.1 µM) was 72.6% and 98% and the viability, T/C (compound 0.316 µM) was 78.3% and 113%. The viability, T/C (compound 1 µM) was 96.4% and 111%, the viability, T/C (compound 3.16 µM) was 126% and 111% and the viability, T/C (compound 10 µM) was 103%. It also gave an IC50 (curve of compound) of over 10000 nM.

Work on `NC(=O)C(=Cn1cnc(-c2cc(C(F)(F)F)cc(C(F)(F)F)c2)n1)c1cncnc1` + CNC(=O)c1ccc(Nc2nc(OC3CCCC3)c3c(-c4ccc5nc(C)oc5c4)c[nH]c3n2)c(OC)c1 yielded an IC50 [1] of 16.6 nM, an IC50 [2] of under 9.49 nM and an IC50 [3] of under 9.49 nM. It also gave an IC50 [4] of under 9.49 nM, an IC50 [5] of under 9.49 nM and an IC50 [6] of under 9.49 nM. For the same compound, the viability, T/C (second compound 0.0316 µM, first compound 0.00949 µM) was 60.5%, the viability, T/C (second compound 0.0316 µM, first compound 0.03 µM) was 38.8% and the viability, T/C (second compound 0.0316 µM, first compound 0.0949 µM) was 22.9%. The viability, T/C (second compound 0.0316 µM, first compound 0.3 µM) was 25.2%, the viability, T/C (second compound 0.0316 µM, first compound 0.949 µM) was 26.6% and the viability, T/C (second compound 0.0316 µM, first compound 3 µM) was 20.1%. For the same compound, the viability, T/C (second compound 0.1 µM, first compound 0.00949 µM) was 29.9%, the viability, T/C (second compound 0.1 µM, first compound 0.03 µM) was 28.1% and the viability, T/C (second compound 0.1 µM, first compound 0.0949 µM) was 21%. It also gave a viability, T/C (second compound 0.1 µM, first compound 0.3 µM) of 24.4%, a viability, T/C (second compound 0.1 µM, first compound 0.949 µM) of 23% and a viability, T/C (second compound 0.1 µM, first compound 3 µM) of 18.7%. For the same compound, the viability, T/C (second compound 0.316 µM, first compound 0.00949 µM) was 23.2%, the viability, T/C (second compound 0.316 µM, first compound 0.03 µM) was 18.9% and the viability, T/C (second compound 0.316 µM, first compound 0.0949 µM) was 16.9%. It also gave a viability, T/C (second compound 0.316 µM, first compound 0.3 µM) of 17.7%, a viability, T/C (second compound 0.316 µM, first compound 0.949 µM) of 18.9% and a viability, T/C (second compound 0.316 µM, first compound 3 µM) of 13.2%. The viability, T/C (second compound 1 µM, first compound 0.00949 µM) was 18.8%, the viability, T/C (second compound 1 µM, first compound 0.03 µM) was 12.9% and the viability, T/C (second compound 1 µM, first compound 0.0949 µM) was 11.7%. The viability, T/C (second compound 1 µM, first compound 0.3 µM) was 11.5%, the viability, T/C (second compound 1 µM, first compound 0.949 µM) was 10.9% and the viability, T/C (second compound 1 µM, first compound 3 µM) was 8.56%. For the same compound, the viability, T/C (second compound 3.16 µM, first compound 0.00949 µM) was 14.1%, the viability, T/C (second compound 3.16 µM, first compound 0.03 µM) was 12.6% and the viability, T/C (second compound 3.16 µM, first compound 0.0949 µM) was 9.81%. The viability, T/C (second compound 3.16 µM, first compound 0.3 µM) was 8.7%, the viability, T/C (second compound 3.16 µM, first compound 0.949 µM) was 6.96% and the viability, T/C (second compound 3.16 µM, first compound 3 µM) was 6.45%. It also gave a viability, T/C (second compound 10 µM, first compound 0.00949 µM) of 14.2%, a viability, T/C (second compound 10 µM, first compound 0.03 µM) of 12% and a viability, T/C (second compound 10 µM, first compound 0.0949 µM) of 9.72%. It also gave a viability, T/C (second compound 10 µM, first compound 0.3 µM) of 7.3%, a viability, T/C (second compound 10 µM, first compound 0.949 µM) of 6.09% and a viability, T/C (second compound 10 µM, first compound 3 µM) of 5.49%.
